For this assay, the target named is T1, C. reinhardtii nitrite reductase (Chlamydomonas reinhardtii, UniProt Q9ZR67).
T1 sequence (Q9ZR67 29-589): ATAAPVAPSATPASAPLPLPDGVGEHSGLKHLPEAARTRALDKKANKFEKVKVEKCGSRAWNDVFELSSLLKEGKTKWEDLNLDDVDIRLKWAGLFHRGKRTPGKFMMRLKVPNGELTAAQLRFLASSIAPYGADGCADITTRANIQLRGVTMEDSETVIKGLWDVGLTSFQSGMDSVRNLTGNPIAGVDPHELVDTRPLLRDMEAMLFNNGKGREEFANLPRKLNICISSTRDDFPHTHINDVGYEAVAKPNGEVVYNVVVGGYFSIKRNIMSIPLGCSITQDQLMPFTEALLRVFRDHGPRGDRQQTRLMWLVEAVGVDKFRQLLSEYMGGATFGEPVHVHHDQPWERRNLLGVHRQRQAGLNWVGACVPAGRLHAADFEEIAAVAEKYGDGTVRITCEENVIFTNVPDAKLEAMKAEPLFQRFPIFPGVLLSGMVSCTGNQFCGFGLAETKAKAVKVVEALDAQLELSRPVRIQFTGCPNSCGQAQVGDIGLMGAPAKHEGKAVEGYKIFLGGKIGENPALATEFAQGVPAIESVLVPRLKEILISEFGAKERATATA
The assay is described as follows: spectral perturbation titration. The class given is binding.

By Kd is commonly meant the concentration at which binding is half-saturated. Higher therefore signals weaker binding. Turning to `O=NO` [nitrite], the Kd is 50 µM.
